In patent US5847076A, “Regulators of the proteasome” (Board of Regents, The University of Texas System, priority 1993, dated 1998):
Where two headings read alike, the source gives them in different places. Numbered stars: 1 amine (or outer) side, 2 acyl side, 3 side chain; on linkers, the order of the positions; unused ones are H or OH. Peptide text beside a SMILES is read from it. CO = O=C([*:1])[*:2]

What was measured:
20S proteasome = experiment: Assay for PA700 activity (ATP-dependent activation of proteasome); assay type: biochemical, bovine; conditions: for ability of nucleotide to promote proteasome activation by PA700: in place of ATP
Description: Assay for PA700 activity. PA700 activity was assayed by measuring the increase in proteasome hydrolysis of the synthetic peptide Suc-Leu-Leu-Val-Tyr-AMC after preincubation of the two components in the presence of ATP. The standard preincubation solution consisted of 45 mM Tris-HCl, pH 7.5, 5 mM DTT, 60 μM ATP, 500 μM MgCl2, 0.3 μg purified proteasome, PA700 as indicated in specific experiments, and any other component as specified, in a final volume of 50 μl. This solution was preincubated at 37° C. for 45 min. The preincubation was ended by the addition of 1.0 ml of a solution containing 50 mM Tris-HCl, pH 8.0, 1 mM DTT, and 50 μM Suc-Leu-Leu-Val-Tyr-AMC. The rate of hydrolysis of the substrate was determined directly by fluorescence as described previously. Routine control assays were conducted in parallel and consisted of the complete procedure but without PA700. […] PA700 activity is defined as the increase in proteasome activity between the two conditions.

[1] = tested on: PA28-inactivating protein; experiment: Effect of protease inhibitors on peptidase activity (Z-Leu-Arg-MNA hydrolysis) of PA28-inactivating protein; assay type: biochemical, bovine
Description: (§1) Assay for PA28-inactivating activity. The inactivation of PA28 was assessed by measuring residual PA28 activity after preincubation of purified PA28 with the inactivating protein. The preincubation contained purified bovine red blood cell PA28 (0.2 μg), 100 mM MES buffer, pH 5.2, 2 mM DTT, and inactivating protein or other factors, as described in this example, in a final volume of 15 μl. After preincubation at […] for 10 min., the reaction was stopped by addition of 1.0 ml of a solution containing 50 mM Trios-HCl, pH 8.0, 1 mM DTT, and 50 μM Suc-LeuLeu-Val-Tyr-AMC (or other proteasome substrate). […] The assays consisted of 50 mM MES buffer, pH 5.2, 1 mM DTT, 50 μM substrate, and 50 μl of column fractions in a final volume of 1.0 ml. Reactions were carried out at 30° C. and the release of free MNA (or other reporter group) was monitored directly by fluorescence. 1.0 unit of activity is defined as the increase in product concentration of 1.0 nM/min.

[2] = tested on: PA28-inactivating protein; experiment: Effect of protease inhibitors on PA28-inactivating activity; assay type: biochemical, bovine
Description: as §1

[3] = tested on: PA28-inactivating protein; experiment: Hydrolysis of synthetic peptides and proteins by PA28-inactivating protein; assay type: biochemical, bovine; conditions: 0.05 μg enzyme, 50 μM substrate, 50 mM MES pH 5.2, 30° C.; 1.0 unit = 1.0 nM/min product
Description: as §1

[4] = tested on: T1, proteasome activation by PA28; experiment: Inhibition of PA28-activated proteasome by carboxy-terminal peptide; assay type: biochemical; conditions: kind of activity not specified further
T1 construct: from tissue
Description: Proteasome activity in the absence of PA28 was 1.2 units/assays. Assays contained 0.5 μg of proteasome and 1 μg of PA28.
Therefore, this peptide or a compound with similar properties may be used to block the action of the proteasome in intact cells. Such a compound or analogs having similar binding activity may be used to control accelerated rates of intracellular protein degradation. The peptide has the sequence: Acetyl-KNFEKLKKPRGETKGMIY (SEQ ID NO. 3). The N-terminal lysine may be acetylated if needed for stability. […] Therefore, the C-terminal Ile-Tyr amino acids or their functional equivalents appear to be important for binding of the 18-mer to the proteasome and for inhibition of the activation of the proteasome by activating factors PA28 and PA700. An equivalent of the 18-mer may comprise less than 18 amino acids or may comprise functionally equivalent amino acid replacements which allow similar binding activity.

PA28 = experiment: Assay for PA28-inactivating activity (residual PA28 activity after preincubation with peptidase); assay type: biochemical, bovine
Description: as §1

[5] = inhibitor 1 mM, preincubated 10 min at 30° C., Z-Leu-Arg-MNA
[6] = inhibitor 1 mM, preincubated 10 min at 30° C.
[7] = inhibitor 2 μM, preincubated 10 min at 30° C., Z-Leu-Arg-MNA

Molecule: Nc1ncnc2c1ncn2[C@@H]1O[C@H](COP(=O)(O)OP(=O)(O)O)[C@@H](O)[C@H]1O [ADP]
- ability of nucleotide to promote proteasome activation by PA700 (20S proteasome): Neither ADP, AMP, adenosine, nor PPi promoted proteasome activation

Molecule: CC(=O)N[C@@H](CC(C)C)C(=O)N[C@@H](CC(C)C)C(=O)N[C@H](C=O)CCCNC(=N)N [Leupeptin]
- effect on the purified PA28-inactivating protein (PA28-inactivating activity and Z-Leu-Arg-MNA hydrolysis), in words [1]: inhibited the PA28-inactivating protein at concentrations in the μM range
- Peptidase Activity (% Inhibition) ([1]; inhibitor 1 μM, preincubated 10 min at 30° C., Z-Leu-Arg-MNA): 100 % Inhibition
- PA28-Inactivating Activity (% Inhibition) ([2]; inhibitor 1 μM, preincubated 10 min at 30° C.): 100 % Inhibition
- effect on PA28-inactivating activity of bovine liver extract ([2]; preliminary characterization, crude liver extract): inhibited

Molecule: Cc1ccc(S(=O)(=O)N[C@@H](Cc2ccccc2)C(=O)CCl)cc1 [TPCK]
- Peptidase Activity (% Inhibition) ([1]; inhibitor 50 μM, preincubated 10 min at 30° C., Z-Leu-Arg-MNA): 0 % Inhibition
- PA28-Inactivating Activity (% Inhibition) ([2]; inhibitor 50 μM, preincubated 10 min at 30° C.): 0 % Inhibition

Molecule: COc1cc(NC(=O)[C@H](CCCNC(=N)N)NC(=O)[C@H](CC(C)C)NC(=O)[C@@H](NC(=O)OCc2ccccc2)C(C)C)cc2ccccc12 [Z--Val--Leu--Arg--MNA, Z-Val-Leu-Arg-MNA]
- hydrolysis by PA28-inactivating protein [3]: 28 UNITS/μg

Molecule: COc1cc(NC(=O)[C@H](CCCCN)NC(=O)[C@H](CC(C)C)NC(=O)[C@H](CC(C)C)NC(=O)OCc2ccccc2)cc2ccccc12 [Z--Leu--Leu--Lys--MNA]
- hydrolysis by PA28-inactivating protein [3]: 19 UNITS/μg

Molecule: COc1cc(NC(=O)[C@H](CCCNC(=N)N)NC(=O)[C@H](CC(C)C)NC(=O)OCc2ccccc2)cc2ccccc12 [Z--Leu--Arg--MNA, Z-Leu-Arg-MNA]
- hydrolysis by PA28-inactivating protein [3]: 98 UNITS/μg

Molecule: COc1cc(NC(=O)[C@H](Cc2ccccc2)NC(=O)[C@H](CC(C)C)NC(=O)[C@H](Cc2ccccc2)NC(=O)CCC(=O)O)cc2ccccc12 [Suc--Phe--Leu--Phe--MNA]
- hydrolysis by PA28-inactivating protein [3]: 0 UNITS/μg

Molecule: Nc1ncnc2c1ncn2[C@@H]1O[C@H](COP(=O)(O)O)[C@@H](O)[C@H]1O [AMP]
- ability of nucleotide to promote proteasome activation by PA700 (20S proteasome): Neither ADP, AMP, adenosine, nor PPi promoted proteasome activation

Molecule: COc1cc(NC(=O)[C@H](CCCNC(=N)N)NC(=O)OCc2ccccc2)cc2ccccc12 [Z--Arg--MNA]
- hydrolysis by PA28-inactivating protein [3]: 0 UNITS/μg

Molecule: O=c1oc(Cl)c(Cl)c2ccccc12 [3,4-Dichloroisocoumarin, 3,4-dichloroisocoumarin]
- effect on the purified PA28-inactivating protein (PA28-inactivating activity and Z-Leu-Arg-MNA hydrolysis), in words [1]: had no effect
- Peptidase Activity (% Inhibition) [1, 5]: 0 % Inhibition
- PA28-Inactivating Activity (% Inhibition) [2, 6]: 0 % Inhibition

Molecule: COc1cc(NC(=O)[C@H](Cc2ccc(O)cc2)NC(=O)[C@H](CO)NC(=O)OCc2ccccc2)cc2ccccc12 [Z--Ser--Tyr--MNA]
- hydrolysis by PA28-inactivating protein [3]: 0 UNITS/μg

Molecule: O=C(CNC(=O)OCc1ccccc1)NCC(=O)N[C@@H](Cc1ccccc1)C(=O)Nc1ccc2ccccc2c1 [Z--Gly--Gly--Phe--βNA] (HELM PEPTIDE1{[O=C(OCc1ccccc1)[*:2]].G.G.F.[c1ccc2cc(N[*:1])ccc2c1]}$$$$V2.0)
- hydrolysis by PA28-inactivating protein [3]: 0 UNITS/μg

Molecule: CC(C)[C@H](NC(=O)[C@H](CCCNC(=N)N)NC(=O)N[C@@H](Cc1ccccc1)C(=O)O)C(=O)N[C@H](C=O)CCCNC(=N)N [Antipain] ({Phe-CO}-Arg-Val-Arg-aldehyde)
- effect on the purified PA28-inactivating protein (PA28-inactivating activity and Z-Leu-Arg-MNA hydrolysis), in words [1]: inhibited the PA28-inactivating protein at concentrations in the μM range
- Peptidase Activity (% Inhibition) [1, 7]: 88 % Inhibition
- PA28-Inactivating Activity (% Inhibition) ([2]; inhibitor 2 μM, preincubated 10 min at 30° C.): 90 % Inhibition

Molecule: Nc1ccn([C@@H]2O[C@H](COP(=O)(O)OP(=O)(O)OP(=O)(O)O)[C@@H](O)[C@H]2O)c(=O)n1 [CTP]
- concentration required for proteasome activation by PA700 relative to ATP (20S proteasome; higher than ATP): 100 fold
- ability of nucleotide to promote proteasome activation by PA700 (20S proteasome): could also activate the proteasome

Molecule: C[C@H](NC(=O)[C@H](Cc1ccccc1)NC(=O)OCc1ccccc1)C(=O)C=[N+]=[N-] [Z--Phe--Ala--CHN2]
- Peptidase Activity (% Inhibition) ([1]; inhibitor 15 μM, preincubated 10 min at 30° C., Z-Leu-Arg-MNA): 85 % Inhibition

Molecule: Chymostatin
- effect on the purified PA28-inactivating protein (PA28-inactivating activity and Z-Leu-Arg-MNA hydrolysis), in words [1]: inhibited the PA28-inactivating protein at concentrations in the μM range
- Peptidase Activity (% Inhibition) ([1]; inhibitor 5 μM, preincubated 10 min at 30° C., Z-Leu-Arg-MNA): 83 % Inhibition

Molecule: CC(C)C[C@H](NC(=O)[C@@H](O)[C@H](N)Cc1ccccc1)C(=O)O [Bestatin]
- Peptidase Activity (% Inhibition) [1, 7]: 19 % Inhibition

Molecule: Nc1ncnc2c1ncn2[C@@H]1O[C@H](CO)[C@@H](O)[C@H]1O [adenosine]
- ability of nucleotide to promote proteasome activation by PA700 (20S proteasome): Neither ADP, AMP, adenosine, nor PPi promoted proteasome activation

Molecule: NCCc1ccc(S(=O)(=O)F)cc1 [Aminoethylbenzenesulfonylfluoride, aminoethylbenzenesulfonylfluoride]
- effect on the purified PA28-inactivating protein (PA28-inactivating activity and Z-Leu-Arg-MNA hydrolysis), in words [1]: had no effect
- Peptidase Activity (% Inhibition) [1, 5]: 0 % Inhibition
- PA28-Inactivating Activity (% Inhibition) [2, 6]: 0 % Inhibition

Molecule: COc1cc(NC(=O)[C@H](CCCNC(=N)N)NC(=O)[C@@H]2CCCN2C(=O)CNC(=O)OCc2ccccc2)cc2ccccc12 [Z--Gly--Pro--Arg--MNA]
- hydrolysis by PA28-inactivating protein [3]: 13 UNITS/μg

Molecule: Nc1ncnc2c1ncn2[C@@H]1O[C@H](COP(=O)(O)OP(=O)(O)OP(=O)(O)O)[C@@H](O)[C@H]1O [ATP]
- ATP concentration for maximal proteasome activation by PA700 (20S proteasome): approximately 60 μM

Molecule: Cc1cc(=O)oc2cc(NC(=O)[C@H](Cc3ccc(O)cc3)NC(=O)CCC(=O)O)ccc12 [Suc--Tyr--AMC]
- hydrolysis by PA28-inactivating protein [3]: 0 UNITS/μg

Molecule: O=C(O)CI [Iodoacetate]
- effect on the purified PA28-inactivating protein (PA28-inactivating activity and Z-Leu-Arg-MNA hydrolysis), in words [1]: inhibited each activity
- Peptidase Activity (% Inhibition) ([1]; 10 min, 100 µM): 83 % Inhibition
- effect on PA28-inactivating activity of bovine liver extract [2]: inhibited
- PA28-Inactivating Activity (% Inhibition) ([2]; 10 min, 100 µM): 93 % Inhibition

Molecule: O=P(O)(O)OP(=O)(O)O [PPi]
- ability of nucleotide to promote proteasome activation by PA700 (20S proteasome): Neither ADP, AMP, adenosine, nor PPi promoted proteasome activation

Molecule: Ile-Tyr
- activity of the dipeptide by itself [4]: very weak activity

Molecule: trypsin
- effect of peptidase or protease on PA28 activity (PA28): rapidly inactivated PA28

Molecule: Cc1ccc(S(=O)(=O)N[C@@H](CCCCN)C(=O)CCl)cc1 [TLCK]
- Peptidase Activity (% Inhibition) ([1]; 10 min, 50 µM): 88 % Inhibition

B1: Carboxypeptidase Y: Carboxypeptidase Y from yeast (Boehringer, 1111914) (protein, UniProt P00729 112-532, looked up)
Carboxypeptidase Y: KIKDPKILGIDPNVTQYTGYLDVEDEDKHFFFWTFESRNDPAKDPVILWLNGGPGCSSLTGLFFELGPSSIGPDLKPIGNPYSWNSNATVIFLDQPVNVGFSYSGSSGVSNTVAAGKDVYNFLELFFDQFPEYVNKGQDFHIAGESYAGHYIPVFASEILSHKDRNFNLTSVLIGNGLTDPLTQYNYYEPMACGEGGEPSVLPSEECSAMEDSLERCLGLIESCYDSQSVWSCVPATIYCNNAQLAPYQRTGRNVYDIRKDCEGGNLCYPTLQDIDDYLNQDYVKEAVGAEVDHYESCNFDINRNFLFAGDWMKPYHTAVTDLLNQDLPILVYAGDKDFICNWLGNKAWTDVLPWKYDEEFASQKVRNWTASITDEVAGEVKSYKHFTYLRVFNGGHMVPFDVPENALSMVNEWIHGGFSL
- effect of peptidase or protease on PA28 activity (PA28): each inactivated PA28 without detectably altering its molecular weight on SDS-PAGE

B2: Carboxypeptidase B: Carboxypeptidase B from bovine pancreas (Sigma C7261) (protein, UniProt P00732 111-417, looked up)
Carboxypeptidase B: TTGHSYEKYNNWETIEAWTEQVASENPDLISRSAIGTTFLGNTIYLLKVGKPGSNKPAVFMDCGFHAREWISPAFCQWFVREAVRTYGREIHMTEFLDKLDFYVLPVVNIDGYIYTWTTNRMWRKTRSTRAGSSCTGTDLNRNFDAGWCSIGASNNPCSETYCGSAAESEKESKAVADFIRNHLSSIKAYLTIHSYSQMMLYPYSYDYKLPKNNVELNTLAKGAVKKLASLHGTTYTYGPGASTIYPASGGSDDWAYDQGIKYSFTFELRDKGRYGFVLPESQIQPTCEETMLAIKYVTSYVLEHLY
- effect of peptidase or protease on PA28 activity (PA28): each inactivated PA28 without detectably altering its molecular weight on SDS-PAGE
